Experimental data reported in the NIST ThermoML archive (doi:10.1021/je900888e).

Test: mn = molality of the nth substance listed, in mol/kg
Conditions: 101 kPa, Liquid; for speed of sound: Pulse-echo method

CC(C)=O [acetone] + CCCC[P+](CCCC)(CCCC)CCCC.[Br-]
m2 = 0
Conditions | mass density [kg/m3]
288.15 K | 795.633
293.15 K | 789.952
298.15 K | 784.234
303.15 K | 778.47
308.15 K | 772.661
313.15 K | 766.799

CC#N [acetonitrile] + CCCC[P+](CCCC)(CCCC)CCCC.[Br-]
m2 = 0
Conditions | mass density [kg/m3]
288.15 K | 787.275
293.15 K | 781.893
298.15 K | 776.493
303.15 K | 771.067
308.15 K | 765.61
313.15 K | 760.119
323.15 K | 749.031

CCCCO [butan-1-ol] + CCCC[P+](CCCC)(CCCC)CCCC.[Br-]
m2 = 0
Conditions | mass density [kg/m3]
288.15 K | 813.269
293.15 K | 809.472
298.15 K | 805.659
303.15 K | 801.817
308.15 K | 797.945
313.15 K | 794.037
323.15 K | 786.081

CCO [ethanol] + CCCC[P+](CCCC)(CCCC)CCCC.[Br-]
m2 = 0
Conditions | mass density [kg/m3]
288.15 K | 793.628
293.15 K | 789.354
298.15 K | 785.063
303.15 K | 780.745
308.15 K | 776.392
313.15 K | 772
323.15 K | 763.084

CCCO [propan-1-ol] + CCCC[P+](CCCC)(CCCC)CCCC.[Br-]
m2 = 0
Conditions | mass density [kg/m3]
288.15 K | 807.448
293.15 K | 803.46
298.15 K | 799.452
303.15 K | 795.414
308.15 K | 791.344
313.15 K | 787.227
323.15 K | 778.86

CCCC[P+](CCCC)(CCCC)CCCC.[Br-] [tetrabutylphosphonium bromide] + CC#N
Conditions | mass density, 288.15 K [kg/m3] | mass density, 293.15 K [kg/m3] | mass density, 298.15 K [kg/m3] | mass density, 303.15 K [kg/m3] | mass density, 308.15 K [kg/m3] | mass density, 313.15 K [kg/m3] | mass density, 323.15 K [kg/m3] | speed of sound, 298.15 K [m/s]
m1 = 0.007874 | 787.927 | 782.552 | 777.157 | 771.738 | 766.288 | 760.805 | 749.733 | –
m1 = 0.01066 | 788.155 | 782.783 | 777.389 | 771.974 | 766.524 | 761.045 | 749.978 | –
m1 = 0.01465 | 788.477 | 783.109 | 777.721 | 772.308 | 766.862 | 761.385 | 750.325 | –
m1 = 0.01965 | 788.885 | 783.521 | 778.136 | 772.724 | 767.283 | 761.811 | 750.761 | –
m1 = 0.02448 | 789.275 | 783.912 | 778.532 | 773.125 | 767.689 | 762.22 | 751.178 | –
m1 = 0.0297 | 789.7 | 784.34 | 778.965 | 773.559 | 768.128 | 762.662 | 751.631 | –
m1 = 0.03509 | 790.132 | 784.784 | 779.405 | 774.005 | 768.58 | 763.119 | 752.095 | –
m1 = 0.03974 | 790.506 | 785.156 | 779.78 | 774.389 | 768.965 | 763.508 | 752.488 | 1280.1
m1 = 0.04929 | 791.273 | 785.93 | 780.567 | 775.178 | 769.76 | 764.31 | 753.307 | 1280.5
m1 = 0.06938 | 792.879 | 787.551 | 782.208 | 776.834 | 771.429 | 765.995 | 755.023 | 1281.4
m1 = 0.08849 | 794.411 | 789.095 | 783.76 | 778.399 | 773.011 | 767.591 | 756.649 | 1282.2
m1 = 0.1056 | 795.783 | 790.48 | 785.156 | 779.812 | 774.43 | 769.023 | 758.107 | –
m1 = 0.1224 | 797.155 | 791.858 | 786.545 | 781.208 | 775.841 | 770.445 | 759.553 | –
m1 = 0.1338 | 798.088 | 792.8 | 787.494 | 782.156 | 776.78 | 771.4 | 760.532 | 1284.1
m1 = 0.1414 | 798.688 | 793.405 | 788.102 | 782.773 | 777.428 | 772.045 | 761.174 | –
m1 = 0.1504 | 799.412 | 794.136 | 788.839 | 783.514 | 778.17 | 772.795 | 761.945 | –
m1 = 0.1671 | 800.758 | 795.492 | 790.206 | 784.9 | 779.563 | 774.2 | 763.372 | 1285.6
m1 = 0.1811 | 801.879 | 796.621 | 791.346 | 786.047 | 780.72 | 775.365 | 764.561 | –
m1 = 0.1987 | 803.297 | 798.049 | 792.784 | 787.498 | 782.184 | 776.843 | 766.064 | 1287
m1 = 0.2296 | 805.781 | 800.553 | 795.309 | 790.042 | 784.751 | 779.433 | 768.697 | 1288.3
m1 = 0.2599 | 808.22 | 803.012 | 797.78 | 792.541 | 787.27 | 781.973 | 771.277 | 1289.5
m1 = 0.2925 | 810.865 | 805.677 | 800.473 | 795.247 | 789.997 | 784.72 | 774.075 | 1290.8
m1 = 0.3259 | 813.591 | 808.424 | 803.241 | 798.038 | 792.811 | 787.558 | 776.962 | 1292.2

CCCC[P+](CCCC)(CCCC)CCCC.[Br-] [tetrabutylphosphonium bromide] + CC(C)=O
Conditions | mass density, 288.15 K [kg/m3] | mass density, 293.15 K [kg/m3] | mass density, 298.15 K [kg/m3] | mass density, 303.15 K [kg/m3] | mass density, 308.15 K [kg/m3] | mass density, 313.15 K [kg/m3] | speed of sound, 298.15 K [m/s]
m1 = 0.009972 | 796.516 | 790.843 | 785.133 | 779.385 | 773.586 | 767.735 | 1161.1
m1 = 0.01477 | 796.926 | 791.257 | 785.552 | 779.806 | 774.015 | 768.169 | –
m1 = 0.01959 | 797.328 | 791.666 | 785.967 | 780.225 | 774.439 | 768.597 | 1161.8
m1 = 0.02424 | 797.711 | 792.056 | 786.362 | 780.624 | 774.841 | 769.006 | –
m1 = 0.02891 | 798.099 | 792.447 | 786.758 | 781.026 | 775.247 | 769.416 | –
m1 = 0.03385 | 798.51 | 792.86 | 787.178 | 781.451 | 775.678 | 769.85 | 1162.7
m1 = 0.04786 | 799.673 | 794.037 | 788.362 | 782.648 | 776.885 | 771.075 | 1163.6
m1 = 0.0619 | 800.822 | 795.195 | 789.537 | 783.836 | 778.088 | 772.29 | 1164.5
m1 = 0.07794 | 802.136 | 796.525 | 790.878 | 785.191 | 779.457 | 773.675 | 1165.7
m1 = 0.09642 | 803.646 | 798.046 | 792.414 | 786.74 | 781.022 | 775.257 | 1166.8
m1 = 0.123 | 805.822 | 800.247 | 794.64 | 788.995 | 783.255 | 777.557 | 1168.4
m1 = 0.1559 | 808.487 | 802.938 | 797.356 | 791.736 | 786.072 | 780.36 | 1170.4
m1 = 0.1912 | 811.381 | 805.858 | 800.306 | 794.713 | 789.077 | 783.39 | 1172.7
m1 = 0.2209 | 813.828 | 808.333 | 802.798 | 797.229 | 791.622 | 785.97 | 1174.3
m1 = 0.2576 | 816.813 | 811.345 | 805.845 | 800.309 | 794.734 | 789.113 | 1176.6
m1 = 0.2914 | 819.596 | 814.151 | 808.679 | 803.169 | 797.619 | 792.03 | 1178.7
